Measurements from BindingDB's records for patent USRE46792 (Otsuka Pharmaceutical, 2018).

Biological target: cAMP-specific 3',5'-cyclic phosphodiesterase 4D (Homo sapiens, UniProt Q08499)
Test: Inhibitory Activity Assay
Description: Necessary amounts of test compounds were weighed, and 100% dimethylsulfoxide (DMSO) was added thereto to adjust the concentration to 10 mM. The solutions were stored in a freezer as stock solutions of each test compound. After being thawed when required, the solutions were diluted 20-fold with 100% DMSO to give a 500 μM concentration. Further, 10-fold serial dilutions were made with 100% DMSO to prepare test compounds of different concentrations. 2 μl of solutions containing one of each of the test compound were separately added into 1.2 ml tubes in which 23 μl of 20 mM Tris-HCl (pH 7.4) had been placed beforehand. 25 μl of a PDE4D enzyme solution diluted at an optimal ratio determined in (3) above were added on ice to each of the tubes, and 50 μl of a substrate solution containing 2 μM[3H] cAMP prepared by dilution with a 20 mM Tris-HCl (pH 7.4) containing 10 mM MgCl2 was added thereto. The final DMSO concentration in the reaction liquid was 2%. After mixing, the mixture was incubated for 10 minutes at 30° C. At the completion of the incubation, the tubes were placed in a bath containing boiling water for 3 minutes, and the reaction was stopped. After cooling the tubes in ice, 25 μl solution of 0.2 mg/ml snake venom was added thereto, and after mixing the mixture was incubated for 10 minutes at 30° C. […] 3H radioactivity (cpm) was measured using a TopCount.

Sequence of cAMP-specific 3',5'-cyclic phosphodiesterase 4D (Q08499 whole entry): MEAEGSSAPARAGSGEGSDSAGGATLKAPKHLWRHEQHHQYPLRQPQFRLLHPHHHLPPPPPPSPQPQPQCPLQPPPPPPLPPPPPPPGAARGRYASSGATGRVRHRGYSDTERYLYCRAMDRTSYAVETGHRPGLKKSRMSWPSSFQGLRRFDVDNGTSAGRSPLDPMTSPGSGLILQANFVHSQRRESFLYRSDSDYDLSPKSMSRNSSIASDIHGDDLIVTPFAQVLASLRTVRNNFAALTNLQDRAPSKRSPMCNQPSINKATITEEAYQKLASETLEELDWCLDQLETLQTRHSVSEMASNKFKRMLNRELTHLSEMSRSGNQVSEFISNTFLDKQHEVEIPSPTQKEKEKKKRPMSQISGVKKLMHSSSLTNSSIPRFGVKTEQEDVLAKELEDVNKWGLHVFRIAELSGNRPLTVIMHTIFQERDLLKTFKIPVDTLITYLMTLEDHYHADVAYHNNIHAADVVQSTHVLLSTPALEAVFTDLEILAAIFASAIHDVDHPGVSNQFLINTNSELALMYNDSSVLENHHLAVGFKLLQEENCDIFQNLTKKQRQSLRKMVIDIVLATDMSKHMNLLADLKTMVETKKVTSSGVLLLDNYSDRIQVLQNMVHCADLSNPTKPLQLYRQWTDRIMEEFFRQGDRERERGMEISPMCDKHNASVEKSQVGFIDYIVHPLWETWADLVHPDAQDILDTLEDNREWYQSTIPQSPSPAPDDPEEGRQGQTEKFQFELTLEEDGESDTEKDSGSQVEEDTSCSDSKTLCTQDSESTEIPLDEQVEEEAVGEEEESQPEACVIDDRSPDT

Compound `COc1ccc(-c2nc(CCC(=O)c3ncccc3OC)co2)cc1OCC1CC1` [USRE46792, 126] has an IC50 of less than 50 nM.
